Data: patent US20100216718A1, “Cancer Classification and Methods of Use” (priority 2007, published 2010)

Assays:
[1] = test system: Akt (Ser473); assay: Western blot of Akt phosphorylation in H1703 cells; type: cell-based, human; details: for phosphorylation of Akt at Ser473: treated for 1 hr, western blot (FIG. 5B)
Description: (§1) We dissolved drugs (Iressa and Gleevec) in DMSO to yield 10 mM stock solution and stored at −20° C.

[2] = test system: H1703 xenograft; assay: H1703 mouse xenograft; type: in vivo, NCR nude mice
Description: We purchased four to six weeks female NCR nude mice from Taconic ande used them to generate H1703 xenograft. We carried out experiments under an IACUC approved protocol. We followed institutional guidelines for the proper and humane use of animals in research. We generated tumors by injecting 10 mice with 5×10^6H1703 cells and reconstituted basement membrane Matrigel (BD Biosciences) with 1:1 ratio in PBS. Drug treatment started when the tumor was about 1 mm×1 mm size. 5 mice were treated with Gleevec at 50 mg/kg/day by oral gavage using a ball ended feeding needle. 5 mice were untreated. […] We measured the average tumor diameter using caliper in both control and treated groups of mice.

[3] = test system: phosphotyrosine signaling in H1703 cells; assay: SILAC LC-MS/MS phosphotyrosine analysis of H1703 cells; type: cell-based, human; details: 1 μM Gleevec for 3 hours
From the text: We performed phosphopeptide immunoprecipitation from different cell lines as described previously (Rush, J., Moritz, A., Lee, K. A., Guo, A., Goss, V. L., Spek, E. J., Zhang, H., Zha, X. M., Polakiewicz, R. D., and Comb, M. J. (2005). Immunoaffinity profiling of tyrosine phosphorylation in cancer cells. Nat. Biotechnol. 23, 94-101) using the PhosphoScan Kit (P-Tyr-100) from CST.
We split equal number of H1703 cells and grew them in either light or heavy SILAC medium (RPMI medium lacking arginine and lysine supplemented with either regular L-Lysine:HCl and L-Arginine:HCL (Sigma) for light medium, or supplemented with L-arginine:HCl (U-13 C6,98%) and L-lysine:2HCl (U-13C6,98%; U-15N2,98%) (Cambridge Isotope Laboratories) for heavy medium. The medium also contained 10% FBS, and penicillin/streptomycin. We grew cells for at least five generations to reach 100 million cells in each medium type. We then treated cells grown in the heavy medium with 1 μM Gleevec for 3 hours. We lysed both treated and control cells in Urea lysis buffer and combined them for phosphopeptide immunoprecipitation experiment as described above.
We LC-MS analyzed each phosphopeptide sample in duplicate. We packed a fused silica microcapillary column (125 μm×18 cm) with C18 reverse-phase resin (Magic C18AQ, 5 μm particles, 200 Å pore size, Michrom Bioresources, Auburn, Calif.). We loaded samples (4 μL) onto this column with an autosampler (LC Packings Famos, San Francisco, Calif.) and eluted them into the mass spectrometer by a 55-min linear gradient of 7 to 30% acetonitrile in 0.1% formic acid. We delivered the gradient at approximately 600 nl/min using a binary HPLC pump (Agilent 1100, Palo Alto, Calif.) with an in-line flow splitter. We mass analyzed eluting peptide ions with a hybrid linear ion trap-7 Tesla ion cyclotron resonance Fourier transform instrument (LTQ-FT, Thermo Electron, San Jose, Calif.). We employed a top-seven method, whereby we collected 7 data-dependent MS/MS scans in the linear ion trap based on measurements made during the previous MS survey scan in the ICR cell, with the linear ion trap and the Fourier transform instrument operating concurrently. We performed MS scans at 375-1800 m/z with an automatic gain control (AGC) target of 3×10^6 and a mass resolution of 10^5. For MS/MS the AGC was 4000, the dynamic exclusion time was 25 s, and singly-charged ions were rejected by charge-state screening.
We assigned peptide sequences to MS/MS spectra using Sequest software (v.27, rev.12) and a composite forward/reverse IPI human protein database. Search parameters were: trypsin as protease; 1.08 Da precursor mass tolerance; static modification on cysteine (+57.02146, carboxamidomethylation); and dynamic modifications on serine, threonine and tyrosine (+79.96633 Da, phosphorylation), lysine (+8.01420, ^13C6 ^15N2), arginine (+6.02013, ^13C6) and methionine (+15.99491, oxidation). We used a target/decoy database approach to establish appropriate score-filtering criteria such that the estimated false-positive assignment rate was <1%. In addition to exceeding charge-dependent XCorr thresholds (for z=2, XCorr≧2.2; for z=3, XCorr≧3.3; for z=4, XCorr≧3.5), we required assignments to contain phosphotyrosine, to have a mass accuracy of −5 to +25 ppm, and to contain either all-light or all-heavy lysine/arginine residues. We further evaluated assignments passing these criteria using a custom quantification program Vista (Bakalarski, C. E., Elias, J. E., Villen, J. Haas, W., Gerber, S. A., Everley, P. A., and Gygi, S. P. (2008) The Impact of Peptide Abundance and Dynamic Range on Stable-Isotope-Based Quantitative Proteomic Analyses. J. Proteome Res. 10.1021/pr800333e) to calculate peak areas and ultimately a relative abundance between heavy and light forms of each peptide.

[4] = test system: PLCγ1; assay: Western analysis with site and phosphorylation-specific antibodies, PLCγ1; type: cell-based, human; details: H1703 cells, 1 μM for 3 hours, western (FIG. 9E)
Description: as §1

[5] = test system: p44/42MAPK; assay: Western blot of p44/42MAPK phosphorylation in H1703 cells; type: cell-based, human; details: 100 nM Imatinib, 1 hour (FIG. 9B)
Description: as §1

[6] = molecular target: T1, PDGFRα (Homo sapiens, UniProt P16234); assay: Western blot of PDGFRα phosphorylation in H1703 cells; type: cell-based
T1 construct: PDGFRα expression is highly restricted to H1703 cell line; endogenous in cells; host or cells: H1703 human NSCLC cell line (ATCC)
Description: as §1

[7] = test system: Stat3; assay: Western analysis with site and phosphorylation-specific antibodies, Stat3; type: cell-based, human; details: H1703 cells, 1 μM for 3 hours, western (FIG. 9E)
Description: as §1

[8] = test system: H1703 cells; assay: Cell growth inhibition assay (MTT/MTS), H1703; type: cell-based, human; details: 72 hr (FIG. 5C)
Description: Briefly, we seeded 1000 to 5000 cells onto flat-bottomed 96-well plates and grew them in complete medium with 10% FBS. After 24 hours, we changed the cell medium to 100 μl complete growth medium with 10% FBS containing various concentrations of Gleevec, and incubated the cells for an additional 72 hours. We applied each drug concentration to triplicate well of cells. At the end of the incubation, we added 20 μl of CellTiter 96 AQUESOUS One solution to each well, and incubated the plate for 1-4 hours. We read absorbance at 490 nm using a Titan Multiskan Ascent microplate reader (Titertek Instrument). We expressed growth inhibition as mean±SD value of percentage of absorbance reading from treated cells vs untreated cells. We repeated the assay at least three times. We calculated IC50 with the use of OriginPro 6.1 software (OriginLab, Northampton, Mass.).

[9] = test system: SHP2; assay: Western analysis with site and phosphorylation-specific antibodies, SHP2; type: cell-based, human; details: H1703 cells, 1 μM for 3 hours, western (FIG. 9E)
Description: as §1

[10] = test system: A549 cells; details: previous report (Zhang et al. 2003); cited from earlier work
[11] = 100 nM Imatinib, 1 hour (FIG. 9B)
[12] = indicated amounts of Imatinib mesylate, 1 hour (FIG. 9B)

T1 sequence (P16234 24-1089): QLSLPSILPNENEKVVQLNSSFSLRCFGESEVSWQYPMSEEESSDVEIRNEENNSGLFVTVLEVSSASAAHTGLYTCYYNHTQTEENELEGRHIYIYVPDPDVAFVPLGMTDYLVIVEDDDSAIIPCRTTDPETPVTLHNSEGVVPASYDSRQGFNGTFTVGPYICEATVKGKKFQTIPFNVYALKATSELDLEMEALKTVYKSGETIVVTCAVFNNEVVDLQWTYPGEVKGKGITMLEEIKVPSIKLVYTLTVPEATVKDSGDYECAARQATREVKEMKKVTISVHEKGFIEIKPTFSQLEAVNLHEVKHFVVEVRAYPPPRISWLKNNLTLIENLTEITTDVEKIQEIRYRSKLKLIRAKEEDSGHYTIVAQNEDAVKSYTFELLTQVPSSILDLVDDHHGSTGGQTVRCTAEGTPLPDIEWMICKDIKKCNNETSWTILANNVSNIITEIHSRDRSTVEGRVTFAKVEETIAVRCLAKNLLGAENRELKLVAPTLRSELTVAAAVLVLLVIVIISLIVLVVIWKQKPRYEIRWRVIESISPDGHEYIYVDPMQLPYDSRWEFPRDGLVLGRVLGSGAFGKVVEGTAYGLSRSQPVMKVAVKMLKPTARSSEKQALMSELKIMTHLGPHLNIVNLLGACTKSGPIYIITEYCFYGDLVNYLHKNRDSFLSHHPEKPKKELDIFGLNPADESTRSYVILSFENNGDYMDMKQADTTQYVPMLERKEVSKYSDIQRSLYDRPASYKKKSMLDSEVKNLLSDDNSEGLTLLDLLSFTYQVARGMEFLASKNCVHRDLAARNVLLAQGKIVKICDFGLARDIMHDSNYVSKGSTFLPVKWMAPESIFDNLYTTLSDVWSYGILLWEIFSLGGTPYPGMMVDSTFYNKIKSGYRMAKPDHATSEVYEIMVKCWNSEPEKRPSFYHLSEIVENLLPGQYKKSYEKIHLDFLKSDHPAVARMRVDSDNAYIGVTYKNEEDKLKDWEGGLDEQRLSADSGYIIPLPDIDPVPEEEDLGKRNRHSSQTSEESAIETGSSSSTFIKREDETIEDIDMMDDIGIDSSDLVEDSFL

COc1cc2ncnc(Nc3ccc(F)c(Cl)c3)c2cc1OCCCN1CCOCC1 [Gefitinib]
phosphorylation of Akt at Ser473 [1]: not by Gefitinib

Cc1ccc(NC(=O)c2ccc(CN3CCN(C)CC3)cc2)cc1Nc1nccc(-c2cccnc2)n1 [Imatinib]
tumor growth ([2]; H1703 xenograft in nude mice, 50 mg/kg daily, 2 week period, vs vehicle): immediate and profound effects on tumor growth | tumor growth ([2]; H1703 xenograft, after 7 days of Imatinib treatment at 50 mg/kg (FIG. 9F)): blocks tumor growth | phosphorylation of SMS2 [3]: inhibited phosphorylation | phosphorylation of the ras effector Rinl [3]: inhibited phosphorylation | tyrosine phosphorylation of SHP-2 [3]: suppressed tyrosine phosphorylation | tyrosine phosphorylation of Stat5 [3]: suppressed tyrosine phosphorylation | tyrosine phosphorylation of phospholipase Cg 1 [3]: suppressed tyrosine phosphorylation | tyrosine phosphorylation of proteins regulating the cytoskeleton and actin reorganization and signaling molecules involved in membrane recycling and endocytosis [3]: suppressed | tyrosine phosphorylation of the regulatory subunit of PI3K [3]: suppressed tyrosine phosphorylation | phosphorylation of PLCγ1 [4]: decreased phosphorylation | p44/42MAPK phosphorylation [5]: little if any effect | PDGFRα phosphorylation [6, 11]: almost complete inhibition | phosphorylation of PDGFRα ([6]; 1 μM for 3 hours, western (FIG. 9E)): decreased phosphorylation | PDGFR α phosphorylation (Tyr754) [6, 12]: dose-dependent inhibition | Akt phosphorylation [1, 11]: almost complete inhibition | Akt phosphorylation (Ser473) [1, 12]: dose-dependent inhibition | phosphorylation of Akt at Ser473 [1]: blocked | phosphorylation of Stat3 [7]: not changed | cell growth / sensitivity to Imatinib [8]: sensitivity profile similar to K562 cells | cell growth / sensitivity to Imatinib ([8]; listed as Imatinib mesylate): inhibits cell growth | phosphorylation of SHP2 [9]: decreased phosphorylation | sensitivity to Imatinib [10]: showed sensitivity
